From patent US6420120B1, “Use of a polypeptide as cell receptor for adenoviruses” (priority 1997, dated 2002)

Assays:
Assay in all cases: Bifunctional ligand: Ad5Luc3 attachment to peptide-pretreated cells, luciferase activity
Details in all cases: 500 μM peptide, 1 h at 0-4° C. before Ad5Luc3
[1] = tested on: NIH-3T3 cells; assay type: cell-based, murine
Protocol: (§1) The human cells (HeLa) or murine cells (Swiss-3T3 or NIH-3T3, ATCC CRL-1658) are rinsed and incubated between 0 and 4° C. with an isotonic solution (PBS) containing 500 μM of peptide. After 1 h, the solution is removed and replaced with the viral inoculum (Ad5Luc3) according to a protocol already described (see above or Hong et al., 1997, EMBO J. 16, 2294-2306). The virus is incubated for 1 hour between 0 and 4° C. to allow its attachment, and then the excess nonadsorbed virus is rinsed with culture medium precooled to 4° C. and the cells are again placed at 37° C. in the presence of culture medium preheated to 37° C. The virus is endocytosed at 37° C. and the viral cycle then lasts for 18 to 20 h at 37° C.

[2] = tested on: Swiss-3T3 cells; assay type: cell-based, murine
Protocol: as §1

[3] = tested on: HeLa cells; assay type: cell-based, human
Protocol: as §1

## GRP-MH20: bifunctional peptide with reverse orientation, GRP at N-terminus and MH20 at C-terminus, SEQ ID No: 23 (KMYPRGNHWAVGHLMRAIVGFRVQWLRRYFVNGSR; listed as Homo sapiens)
[1]
  increase in the luciferase activity (number of adsorbed viruses) versus no peptide: eight to ten times
[2]
  increase in the luciferase activity (number of adsorbed viruses) versus no peptide: two to three times
[3]
  increase in the luciferase activity (number of adsorbed viruses) versus no peptide: five to six times

## MH20-GRP: bifunctional peptide, MH20 at N-terminus fused to GRP (Gastrin Releasing Peptide), SEQ ID No: 22 (RAIVGFRVQWLRRYFVNGSRKMYPRGNHWAVGHLM; listed as Homo sapiens)
[1]
  increase in the luciferase activity (number of adsorbed viruses) versus no peptide: identical slope
[2]
  increase in the luciferase activity (number of adsorbed viruses) versus no peptide: identical slope
[3]
  increase in the luciferase activity (number of adsorbed viruses) versus no peptide: identical slope
